Assay: mn = molality of the nth substance listed, in mol/kg
Settings: 100 kPa, Liquid; for speed of sound: Frequency=3 MHz, Sing-around technique in a fixed-path interferometer; for mass density: Vibrating tube method

[Ba+2].[O-][Cl+3]([O-])([O-])[O-].[O-][Cl+3]([O-])([O-])[O-] [barium perchlorate] + CC(=O)N(C)C
Settings	mass density, 298.15 K [kg/m3]	mass density, 303.15 K [kg/m3]	mass density, 308.15 K [kg/m3]	mass density, 313.15 K [kg/m3]	mass density, 318.15 K [kg/m3]	speed of sound, 298.15 K [m/s]	speed of sound, 303.15 K [m/s]	speed of sound, 308.15 K [m/s]	speed of sound, 313.15 K [m/s]	speed of sound, 318.15 K [m/s]
m1 = 0.01314	939.723	935.116	930.504	925.882	921.254	1457.2	1437.5	1417.7	1398.1	1378.6
m1 = 0.02301	942.289	937.692	933.085	928.469	923.849	1458	1438.3	1418.6	1399.1	1379.6
m1 = 0.03274	944.807	940.214	935.612	931.002	926.384	1458.8	1439.2	1419.5	1400	1380.6
m1 = 0.04665	948.382	943.793	939.196	934.591	929.98	1459.9	1440.4	1420.8	1401.4	1382
m1 = 0.06587	953.282	948.701	944.112	939.515	934.912	1461.4	1441.9	1422.5	1403.1	1383.8
m1 = 0.08329	957.7	953.122	948.539	943.99	939.4	1462.7	1443.3	1423.9	1405	1385.8
m1 = 0.1042	963.001	958.419	953.839	949.253	944.664	1464.5	1445	1425.7	1406.5	1387.4
m1 = 0.1312	969.764	965.202	960.631	956.055	951.474	1466.2	1447	1427.8	1408.8	1389.8
m1 = 0.1609	977.195	972.637	968.076	963.509	958.937	1468.4	1449.3	1430.3	1411.3	1392.5
m1 = 0.1965	985.908	981.362	976.808	972.249	967.689	1470.8	1451.9	1432.9	1414.1	1395.4

[Ba+2].[O-][Cl+3]([O-])([O-])[O-].[O-][Cl+3]([O-])([O-])[O-] [barium perchlorate] + CN(C)C=O
Settings	mass density, 298.15 K [kg/m3]	mass density, 303.15 K [kg/m3]	mass density, 308.15 K [kg/m3]	mass density, 313.15 K [kg/m3]	mass density, 318.15 K [kg/m3]	speed of sound, 298.15 K [m/s]	speed of sound, 303.15 K [m/s]	speed of sound, 308.15 K [m/s]	speed of sound, 313.15 K [m/s]	speed of sound, 318.15 K [m/s]
m1 = 0.01339	947.432	942.667	937.889	933.096	928.287	1458.1	1438.9	1419.6	1400.4	1381.3
m1 = 0.02254	949.821	945.058	940.281	935.489	930.686	1458.7	1439.5	1420.2	1401.1	1381.9
m1 = 0.0331	952.562	947.81	943.03	938.243	933.442	1459.5	1440.2	1420.9	1401.8	1382.7
m1 = 0.04712	956.179	951.422	946.652	941.866	937.07	1459.9	1440.9	1421.7	1402.7	1383.7
m1 = 0.06582	960.992	956.235	951.468	946.686	941.893	1460.9	1441.9	1422.8	1403.8	1384.9
m1 = 0.08395	965.617	960.865	956.099	951.321	946.53	1461.8	1442.8	1423.8	1405	1386.1
m1 = 0.1061	971.226	966.477	961.715	956.94	952.153	1462.8	1444	1425.1	1406.3	1387.5
m1 = 0.1322	977.835	973.089	968.33	963.559	958.776	1464.1	1445.4	1426.6	1407.8	1389.2
m1 = 0.1588	984.508	979.766	975.008	970.24	965.461	1465.4	1446.8	1428	1409.4	1390.8
m1 = 0.1995	994.63	989.888	985.134	980.371	975.596	1467.4	1448.9	1430.3	1411.8	1393.3

From the NIST ThermoML archive (doi:10.1016/j.jct.2015.08.033)
